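48-hour exposure; five concentrations; linearly interpolated endpoints. GI50 marks 50% less growth.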 Active and inactive are the calls of the source. Rule as the data show it: active = GI50 up to about 1.1 µM and inactive = higher.
Key:
Experiment in all cases: NCI anticancer screen, dose series, 48 h
[1] = tested on: 786-0
[2] = tested on: A498
[3] = tested on: A549
[4] = tested on: ACHN
[5] = tested on: BT-549
[6] = tested on: CAKI-1
[7] = tested on: CCRF-CEM
[8] = tested on: COLO 205
[9] = tested on: DLD-1
[10] = tested on: DMS-114
[11] = tested on: DMS-273
[12] = tested on: DU-145
[13] = tested on: EKVX
[14] = tested on: HCC 2998
[15] = tested on: HCT-116
[16] = tested on: HCT-15
[17] = tested on: HL-60
[18] = tested on: HOP-18
[19] = tested on: HOP-62
[20] = tested on: HOP-92
[21] = tested on: HT-29
[22] = tested on: Hs-578T
[23] = tested on: IGROV-1
[24] = tested on: KM-20L2
[25] = tested on: KM12
[26] = tested on: LXFL 529
[27] = tested on: M14
[28] = tested on: M19-MEL
[29] = tested on: MCF7
[30] = tested on: MDA-MB-231
[31] = tested on: MDA-MB-435
[32] = tested on: MDA-N
[33] = tested on: MOLT-4
[34] = tested on: Malme-3M
[35] = tested on: NCI-H226
[36] = tested on: NCI-H23
[37] = tested on: NCI-H460
[38] = tested on: NCI-H522
[39] = tested on: NCI/ADR-RES
[40] = tested on: OVCAR-3
[41] = tested on: OVCAR-5
[42] = tested on: OVCAR-8
[43] = tested on: PC-3
[44] = tested on: RPMI-8226
[45] = tested on: RXF 393
[46] = tested on: RXF 631
[47] = tested on: SF-268
[48] = tested on: SF-295
[49] = tested on: SF-539
[50] = tested on: SK-MEL-28
[51] = tested on: SK-MEL-2
[52] = tested on: SK-MEL-5
[53] = tested on: SK-OV-3
[54] = tested on: SN12C
[55] = tested on: SNB-19
[56] = tested on: SNB-75
[57] = tested on: SNB-78
[58] = tested on: SR
[59] = tested on: SW-620
[60] = tested on: T47D
[61] = tested on: TK-10
[62] = tested on: U-251
[63] = tested on: UACC-257
[64] = tested on: UACC-62
[65] = tested on: UO-31
[66] = tested on: XF498

With CN(C)CC1CCCCCCCCCC(CN(C)C)C1=O (stereo unspecified) the GI50 [1] was > 20.6 µM (inactive), the GI50 [2] was > 28.4 µM (inactive) and the GI50 [3] was > 34.8 µM (inactive). The GI50 [4] was > 31 µM (inactive), the GI50 [5] was 6.21 µM (inactive) and the GI50 [6] was > 35.4 µM (inactive). For the same compound, the GI50 [7] was 12 µM (inactive), the GI50 [8] was > 38.1 µM (inactive) and the GI50 [9] was > 100 µM (inactive). The GI50 [10] was > 100 µM (inactive), the GI50 [11] was > 100 µM (inactive) and the GI50 [12] was 12.9 µM (inactive). The GI50 [13] was > 39.9 µM (inactive), the GI50 [14] was > 100 µM (inactive) and the GI50 [15] was > 26.7 µM (inactive). The GI50 [16] was over 22.3 µM, the GI50 [17] was 15.1 µM (inactive) and the GI50 [18] was > 100 µM (inactive). For the same compound, the GI50 [19] was > 44 µM (inactive), the GI50 [20] was 20.4 µM (inactive) and the GI50 [21] was 14.3 µM (inactive). The GI50 [22] was 8.18 µM (inactive), the GI50 [23] was > 39.9 µM (inactive) and the GI50 [24] was 61.4 µM (inactive). The GI50 [25] was > 21.4 µM (inactive), the GI50 [26] was > 100 µM (inactive) and the GI50 [27] was 16.9 µM (inactive). For the same compound, the GI50 [28] was 63.1 µM (inactive), the GI50 [29] was 5.07 µM (inactive) and the GI50 [30] was 17.3 µM (inactive). The GI50 [31] was 4.94 µM (inactive), the GI50 [32] was 5.62 µM (inactive) and the GI50 [33] was 7.03 µM (inactive). The GI50 [34] was > 35.2 µM (inactive), the GI50 [35] was > 43 µM (inactive) and the GI50 [36] was > 27.6 µM (inactive). The GI50 [37] was > 36.8 µM (inactive), the GI50 [38] was 2.7 µM (inactive) and the GI50 [39] was 6.43 µM (inactive). The GI50 [40] was > 20.3 µM (inactive), the GI50 [41] was > 49.1 µM (inactive) and the GI50 [42] was > 32.3 µM (inactive). For the same compound, the GI50 [43] was 4.41 µM (inactive), the GI50 [44] was > 22 µM (inactive) and the GI50 [45] was 8.77 µM (inactive). The GI50 [46] was > 100 µM (inactive), the GI50 [47] was > 34.3 µM (inactive) and the GI50 [48] was > 42.1 µM (inactive). For the same compound, the GI50 [49] was > 27.7 µM (inactive), the GI50 [50] was 32.1 µM (inactive) and the GI50 [51] was > 42.9 µM (inactive). The GI50 [52] was 17.3 µM (inactive), the GI50 [53] was > 28.8 µM (inactive) and the GI50 [54] was > 25.4 µM (inactive). For the same compound, the GI50 [55] was > 39.7 µM (inactive), the GI50 [56] was 17.1 µM (inactive) and the GI50 [57] was > 100 µM (inactive). For the same compound, the GI50 [58] was 17.6 µM (inactive), the GI50 [59] was > 21.2 µM (inactive) and the GI50 [60] was 7.06 µM (inactive). The GI50 [61] was > 37.8 µM (inactive), the GI50 [62] was > 37.5 µM (inactive) and the GI50 [63] was 23.1 µM (inactive). For the same compound, the GI50 [64] was 22 µM (inactive), the GI50 [65] was > 38.7 µM (inactive) and the GI50 [66] was > 100 µM (inactive).

Reference: ChEMBL document CHEMBL1201862, “PubChem BioAssay data set” (2004)
